The values below are quoted from earlier work in patent publication US9403744B2, “Process for the production of alkyl ethers by the etherification of isobutene” (SAIPEM S.p.A., priority 2006, dated 2016).

Each structure is given as a SMILES string.

The conditions of the data set: in water.

For the molecule `CCOC(C)(C)C` [ETBE, ethyl ter-butyl ether], the “Solubility in H2O” value is recorded as 1.2 w %. For `CCC(C)(C)OC` [TAME, methyl ter-amyl ether], the “Solubility in H2O” value is given as 1.1 w %.
